Assay results reported in patent US5674697A, “High sensitivity immunoassay for polychlorinated dibenzo-p-dioxins and polychlorinated dibenzofurans” (priority 1995, dated 1997).

Tested on: DD-3 antibody
Assay: Direct competitive EIA with immobilized DD-3 monoclonal antibody and competitor-HRP conjugate
Format: binding, mouse
Conditions: analyte 2,3,7,8-TCDD; DD-3 antibody
Description: Antibodies can be readily prepared by standard methods. […] M. Vanderlaan, et al., U.S. Pat. No. 4,798,807 (1989).
The competitors A-F (FIG. 2) and Hapten I (FIG. 1) were conjugated to the enzyme, amino modified Horseradish Peroxidase (HRP) (horseradish peroxidase commercially available from Sigma Chemical Co. (No. P-6782), St. Louis, Mo.; amino modified per R. Hsiao and H. Royer, Archives Biochem. Biophys., 198, 379-385 (1979) to give 6-24 free amines), using the carbodiimide mediated carboxyl activation procedure described in Example 7. Hapten and competitor load were determined by UV/Vis spectroscopy, also as described in Example 7.
The direct EIA (immobilized antibody and competitor enzyme conjugate) was performed as follows. Monoclonal antibody supernatant stored at -20° C. was diluted 1,000-40,000 fold with PBS which contained 0.1% Tween-20. This solution was dispensed (500 ul) into donkey anti-mouse second antibody coated tubes (DAM Tubes commercially available from Millipore Corp., Bedford, Mass.) and incubated at room temperature overnight. The antisera solution was decanted from the tubes and the tubes washed 3 times with distilled water. Non-specific sites in the tubes were blocked with 600 ul of BSA blocking buffer (EIA Blocking Buffer commercially available from Millipore Corp., Bedford, Mass.) and incubated for 2 hours at room temperature or overnight at 4° C. The blocking buffer was decanted and the tubes allowed to dry under ambient room conditions for at least 2 hours. The assay was performed by adding 500 ul of assay diluent (1% methanol (v/v) and 0.005% Tween-20 (w/v) in distilled water) to the required number of tubes followed by 10 ul of a methanol solution of the analyte (PCDD or PCDF). After a 5 minute incubation at room temperature, the solution was decanted and the tubes rinsed 3-4 times with tap water. The horseradish peroxidase competitor or Hapten I conjugates were diluted 1,000-60,000 fold from 2-5 mg/ml stock solutions in PBS with conjugate diluent (Enzyme Conjugate Diluent commercially available from Millipore Corp., Bedford, Mass.). The enzyme conjugate (200 ul) was added to the tubes followed by a 5 minute incubation at room temperature. The conjugate solution was decanted and the tubes rinsed 3-4 times with tap water. Enzyme substrate solution (500 ul, KPL No. 50-76-04 commercially available from KPL Laboratories, Gaithersburg, Md.) was added and the tubes were incubated at room temperature for 5-15 minutes. The enzyme reaction was stopped with the addition of 500 ul of 1N HCl. The OD of the solution was determined at 450 nm. The data was plotted using Log (Congener Concentration) versus B/Bo (B=Sample Absorbance, Bo=Sample Blank Absorbance).

| Compound | Assay sensitivity compared with the Hapten I enzyme conjugate based assay |
| --- | --- |
| O=C(O)CCCCc1cc(Cl)ccc1Cl [Competitor A, 5-(2,5-dichlorophenyl)pentanoic acid] | significantly more sensitive |
| O=C(O)CCc1ccc(Cl)c(Cl)c1 [Competitor B] | significantly more sensitive |
| O=C(O)CCCOc1ccc(Cl)cc1Cl [Competitor C] | significantly more sensitive |
| O=C(O)CCCOc1ccc(Cl)c(Cl)c1 [Competitor D] | significantly more sensitive |
| O=C(O)CCCSc1cc(Cl)ccc1Cl [Competitor E] | significantly more sensitive |
| O=C(O)CCCC(=O)c1ccc(Cl)c(Cl)c1 [Competitor F] | significantly more sensitive |

Same assay, conditions: analyte 2,3,7,8-tetrachlorodibenzo-p-dioxin; listed competitor as HRP conjugate; DD-3 antibody

| Compound | I50 (pg/well) | I85 (mdl, pg/well) [pg/well] |
| --- | --- | --- |
| O=C(O)CCCCc1cc(Cl)ccc1Cl [Competitor A, 5-(2,5-dichlorophenyl)pentanoic acid] | 1,000 pg/well | 25 |
| O=C(O)CCc1ccc(Cl)c(Cl)c1 [Competitor B] | 350 pg/well | 20 |
| O=C(O)CCCOc1ccc(Cl)cc1Cl [Competitor C] | 230 pg/well | 13 |
| O=C(O)CCCOc1ccc(Cl)c(Cl)c1 [Competitor D] | 380 pg/well | 15 |
| O=C(O)CCCSc1cc(Cl)ccc1Cl [Competitor E] | 380 pg/well | 15 |
| O=C(O)CCCC(=O)c1ccc(Cl)c(Cl)c1 [Competitor F] | 230 pg/well | 13 |

Same assay, conditions: analyte 2,3,7,8-tetrachlorodibenzofuran; Competitor F versus literature Hapten I assay (Stanker 1987)

| Compound | Factor more sensitive than DD-3 and Hapten I assay system |
| --- | --- |
| Clc1cc2oc3cc(Cl)c(Cl)cc3c2cc1Cl [2,3,7,8-TCDF, 2,3,7,8-tetrachlorodibenzofuran] | ~10 |

Same assay, conditions: analyte 2,3,7,8-tetrachlorodibenzofuran; DD-3 and Competitor F

| Compound | I50 [pg/well] | I85 (mdl) [pg/well] |
| --- | --- | --- |
| Clc1cc2oc3cc(Cl)c(Cl)cc3c2cc1Cl [2,3,7,8-TCDF, 2,3,7,8-tetrachlorodibenzofuran] | 800 | 80 |

Tested on: not given
Assay: not given
Conditions: Table II, congeners of the TEF Mixture native standard; cited from earlier work

| Compound | TEF* (toxic equivalency factor) |
| --- | --- |
| Clc1cc2c(oc3c(Cl)c(Cl)c(Cl)c(Cl)c32)c(Cl)c1Cl [1,2,3,4,6,7,8-HpCDF] | 0.01 |
| Clc1cc(Cl)c2c(c1Cl)Oc1c(Cl)c(Cl)c(Cl)c(Cl)c1O2 [1,2,3,4,6,7,9-HpCDD] | 0.01 |
| Clc1cc2oc3c(Cl)c(Cl)c(Cl)c(Cl)c3c2c(Cl)c1Cl [1,2,3,4,7,8,9-HpCDF] | 0.01 |
| Clc1cc2c(cc1Cl)Oc1c(Cl)c(Cl)c(Cl)c(Cl)c1O2 [1,2,3,4,7,8-HxCDD] | 0.1 |
| Clc1cc2oc3c(Cl)c(Cl)c(Cl)c(Cl)c3c2cc1Cl [1,2,3,4,7,8-HxCDF] | 0.1 |
| Clc1cc2c(c(Cl)c1Cl)Oc1cc(Cl)c(Cl)c(Cl)c1O2 [1,2,3,6,7,8-HxCDD] | 0.1 |
| Clc1cc2c(oc3cc(Cl)c(Cl)c(Cl)c32)c(Cl)c1Cl [1,2,3,6,7,8-HxCDF] | 0.1 |
| Clc1cc2c(c(Cl)c1Cl)Oc1c(cc(Cl)c(Cl)c1Cl)O2 [1,2,3,7,8,9-HxCDD] | 0.1 |
| Clc1cc2oc3cc(Cl)c(Cl)c(Cl)c3c2c(Cl)c1Cl [1,2,3,7,8,9-HxCDF] | 0.1 |
| Clc1cc2c(cc1Cl)Oc1c(cc(Cl)c(Cl)c1Cl)O2 [1,2,3,7,8-PeCDD] | 0.5 |
| Clc1cc2oc3cc(Cl)c(Cl)c(Cl)c3c2cc1Cl [1,2,3,7,8-PeCDF] | 0.05 |
| Clc1cc2c(oc3c(Cl)c(Cl)c(Cl)cc32)c(Cl)c1Cl [2,3,4,6,7,8-HxCDF] | 0.1 |
| Clc1cc2c(cc1Cl)Oc1cc(Cl)c(Cl)cc1O2 [2,3,7,8-TCDD, 2,3,7,8-tetrachlorodibenzo-p-dioxin] | 1 |
| Clc1cc2oc3cc(Cl)c(Cl)cc3c2cc1Cl [2,3,7,8-TCDF, 2,3,7,8-tetrachlorodibenzofuran] | 0.1 |
| Clc1c(Cl)c(Cl)c2c(c1Cl)Oc1c(Cl)c(Cl)c(Cl)c(Cl)c1O2 [OCDD] | 0.001 |
| Clc1c(Cl)c(Cl)c2c(oc3c(Cl)c(Cl)c(Cl)c(Cl)c32)c1Cl [OCDF] | 0.001 |

Same assay, conditions: most toxic PCDD/PCDF congeners; reference 2,3,7,8-TCDD = 1.0; S. Safe 1990; cited from earlier work

| Compound | TEF |
| --- | --- |
| Clc1cc2c(oc3c(Cl)c(Cl)c(Cl)c(Cl)c32)c(Cl)c1Cl [1,2,3,4,6,7,8-HpCDF] | 0.01 |
| Clc1cc2c(c(Cl)c1Cl)Oc1c(Cl)c(Cl)c(Cl)c(Cl)c1O2 [1,2,3,4,6,7,8-heptachlorodibenzo-p-dioxin] | 0.01 |
| Clc1cc(Cl)c2c(c1Cl)Oc1c(Cl)c(Cl)c(Cl)c(Cl)c1O2 [1,2,3,4,6,7,9-HpCDD] | 0.01 |
| Clc1cc2oc3c(Cl)c(Cl)c(Cl)c(Cl)c3c2c(Cl)c1Cl [1,2,3,4,7,8,9-HpCDF] | 0.01 |
| Clc1cc2c(cc1Cl)Oc1c(Cl)c(Cl)c(Cl)c(Cl)c1O2 [1,2,3,4,7,8-HxCDD] | 0.1 |
| Clc1cc2oc3c(Cl)c(Cl)c(Cl)c(Cl)c3c2cc1Cl [1,2,3,4,7,8-HxCDF] | 0.1 |
| Clc1cc2c(c(Cl)c1Cl)Oc1cc(Cl)c(Cl)c(Cl)c1O2 [1,2,3,6,7,8-HxCDD] | 0.1 |
| Clc1cc2c(oc3cc(Cl)c(Cl)c(Cl)c32)c(Cl)c1Cl [1,2,3,6,7,8-HxCDF] | 0.1 |
| Clc1cc2c(c(Cl)c1Cl)Oc1c(cc(Cl)c(Cl)c1Cl)O2 [1,2,3,7,8,9-HxCDD] | 0.1 |
| Clc1cc2oc3cc(Cl)c(Cl)c(Cl)c3c2c(Cl)c1Cl [1,2,3,7,8,9-HxCDF] | 0.1 |
| Clc1cc2c(cc1Cl)Oc1c(cc(Cl)c(Cl)c1Cl)O2 [1,2,3,7,8-PeCDD] | 0.5 |
| Clc1cc2oc3cc(Cl)c(Cl)c(Cl)c3c2cc1Cl [1,2,3,7,8-PeCDF] | 0.05 |
| Clc1cc2c(oc3c(Cl)c(Cl)c(Cl)cc32)c(Cl)c1Cl [2,3,4,6,7,8-HxCDF] | 0.1 |
| Clc1cc2c(cc1Cl)Oc1cc(Cl)c(Cl)cc1O2 [2,3,7,8-TCDD, 2,3,7,8-tetrachlorodibenzo-p-dioxin] | 1.0 |
| Clc1cc2oc3cc(Cl)c(Cl)cc3c2cc1Cl [2,3,7,8-TCDF, 2,3,7,8-tetrachlorodibenzofuran] | 0.1 |
| Clc1c(Cl)c(Cl)c2c(c1Cl)Oc1c(Cl)c(Cl)c(Cl)c(Cl)c1O2 [OCDD] | 0.001 |
| Clc1c(Cl)c(Cl)c2c(oc3c(Cl)c(Cl)c(Cl)c(Cl)c32)c1Cl [OCDF] | 0.001 |

Same assay, conditions: toxicity relative to 2,3,7,8-TCDD; cited from earlier work

| Compound | TEF |
| --- | --- |
| Clc1cc2c(c(Cl)c1Cl)Oc1c(Cl)c(Cl)c(Cl)c(Cl)c1O2 [1,2,3,4,6,7,8-heptachlorodibenzo-p-dioxin] | 0.01 |
| Clc1cc2c(cc1Cl)Oc1cc(Cl)c(Cl)cc1O2 [2,3,7,8-TCDD, 2,3,7,8-tetrachlorodibenzo-p-dioxin] | 1.0 |
